Measurements reported in PMC6570762, “Identification of a binding protein for sesamin and characterization of its roles in plant growth” (Scientific Reports, 2019).

Target: T1, Steroleosin B (GST-fused Steroleosin B) (Sesamum indicum, UniProt Q8LKV5)
T1 construct: gene SOP3
T1 sequence (Q8LKV5 1-362): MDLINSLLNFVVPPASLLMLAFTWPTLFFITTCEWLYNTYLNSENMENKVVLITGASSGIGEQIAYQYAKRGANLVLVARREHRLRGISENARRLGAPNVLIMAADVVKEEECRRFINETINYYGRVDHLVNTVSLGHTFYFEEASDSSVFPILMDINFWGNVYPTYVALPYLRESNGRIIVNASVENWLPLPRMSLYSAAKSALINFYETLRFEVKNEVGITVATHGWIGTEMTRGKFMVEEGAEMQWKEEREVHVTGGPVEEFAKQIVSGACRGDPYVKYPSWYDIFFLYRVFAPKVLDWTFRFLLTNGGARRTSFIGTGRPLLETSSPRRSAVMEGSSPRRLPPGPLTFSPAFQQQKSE
Test: STD-NMR ([…] MHz)
Assay type: binding
Details: 60 μM sesamin, 0.5 μM GST-Steroleosin B, stated ligand:protein ratio 60:1; PBS in D2O, 5% DMSO-d6, 298 K; GST alone as control

c1cc2c(cc1[C@H]1OC[C@H]3[C@@H]1CO[C@@H]3c1ccc3c(c1)OCO3)OCO2 [sesamin]
STD-NMR (800 MHz): these results demonstrate the direct interaction between sesamin and Steroleosin B
